# Source: patent US5541174A, “Analgesic method” (priority 1995, dated 1996)
# Key:
# [1] = system: acetic acid induced writhing in mice; test: Acetic acid-induced writhing test; assay type: in vivo, ICR male mice
# Description: 1. Acetic acid-induced writhing test as described in Koster et al., "Acetic Acid for Analgesic Screening", Fed. Proc. 18, 412 (1959), incorporated by reference herein; and
# Groups of 10 ICR male mice (Taisho Pharmaceutical Co. Research Center) were used to study each dose of every compound. Ligands or complexes were administered orally or subcutaneously in 0.1 ml of vehicle per 10 g of body weight 30 minutes before the intrapertioneal injection of 0.1 ml of 0.7% acetic acid solution per 10 g of body weight. Number of writhes were counted for each mouse during a period of 10 to 20 min after acetic acid injection. Inhibitory percent was calculated by comparison with the number of writhes in the non-treated control, vehicle-treated, and acetic acid-injected group. The ED50 value and 95% confidence limits were calculated from the inhibitory percent by the method of Litchfield and Wilcoxon.
# [2] = system: adjuvant-induced arthritic pain in rats; test: Adjuvant-induced arthritic pain; assay type: in vivo, male Sprague-Dawley rats
# Text: 2. Adjuvant-induced arthritic pain as described in:
# S. KUZNA, et al., Measurement of Arthritic Pain and Effects of Analgesics in the Adjuvant-Treated Rat, Chem. Pharm. Bull. 23, 1184-1191 (1975);
# C. A. WINTER, et al., Analgesic Activity of Diflunisal in Rats with Hyperalygesia Induced by Freud's Adjuvant, J. Pharmacol. Exp. Ther. 211, 678-685 (1979; and
# M. E. ROSENTHALE, et al., Adjuvant Arthritis:Immuno-Pathological and Hyperalgesic Features, Fed. Proced. 41, 2577-2582 (1982),
# incorporated by reference herein.
# Groups of 5-6 male Sprague-Dawley rats (Taisho Pharmaceutical Co. Research Center) weighing 140 to 160 g at the time of Mycobacterium butyricum (adjuvant, Difco Laboratories, Detroit, Mich.) injection were used to study each compound. Rats were injected intradermally at the base of the tail with 0.1 ml of a parafin oil suspension of 0.5 mg of heat-killed mycobacterium. Fifteen to 19 days later, drugs were administered orally or subcutaneously in 0.5 ml of vehicle per 100 g of body weight to rats showing the nociceptive reaction, vocalization following a gentle flexion of the tarsal-tibial joint of the inflamed hind-paw. Vocalization responses were measured every hour for 5 hours. […] The ED50 value and 95% confidence limits were calculated from the positive rate for non-treated controls, vehicle-treated adjuvant arthritic rats, by the method of Litchfield and Wilcoxin.
# All drugs were suspended with 5% gum arabic in saline solution or wetted with enough propylene glycol to give a final concentration of 4% propylene glycol and the wetted solid suspended in 1.4% polyvinyl alcohol in saline.
# [3] = oral, 5% gum arabic, 0.18 mmol/kg
# [4] = oral, 5% gum arabic, 0.71 mmol/kg
smiles,measurement,setting,value
"[Cl][Cu][Cl] [Cu(II)(chloride)2, reference compound]",ED50,"[1]; s.c., PG-PVA in saline",0.60 mmol/kg
same,% Inhibition,"[1]; s.c., PG-PVA, 0.56 mmol/kg",48%
same,% Inhibition,"[1]; s.c., PG-PVA, 1.12 mmol/kg",69%
same,% Inhibition,"[1]; s.c., PG-PVA, 2.24 mmol/kg",83%
same,analgesic activity,[2]; doses statistically significantly analgesic in the writhing model,devoid of analgesic activity
same,ED50,"[2]; oral, PG-PVA in saline",> 2.24 mmol/kg
same,% Inhibition,"[2]; oral, PG-PVA, 2.24 mmol/kg",0%
same,ED50,"[2]; s.c., PG-PVA in saline",> 2.24 mmol/kg
same,% Inhibition,"[2]; s.c., PG-PVA, 2.24 mmol/kg",3%
"COc1ccc2c(c1)c(CC(=O)O)c(C)n2C(=O)c1ccc(Cl)cc1 [Indomethacin, reference compound]",ED50,"[1]; oral, 5% gum arabic in saline",0.04 mmol/kg
same,% Inhibition,"[1]; oral, 5% gum arabic, 0.01 mmol/kg",36%
same,% Inhibition,"[1]; oral, 5% gum arabic, 0.03 mmol/kg",42%
same,% Inhibition,"[1]; oral, 5% gum arabic, 0.06 mmol/kg",58%
same,ED50,"[1]; oral, PG-PVA in saline",0.01 mmol/kg
same,% Inhibition,"[1]; oral, PG-PVA, 0.007 mmol/kg",27%
same,% Inhibition,"[1]; oral, PG-PVA, 0.014 mmol/kg",60%
same,% Inhibition,"[1]; oral, PG-PVA, 0.028 mmol/kg",68%
same,ED50,"[1]; s.c., PG-PVA in saline",0.02 mmol/kg
same,% Inhibition,"[1]; s.c., PG-PVA, 0.007 mmol/kg",19%
same,% Inhibition,"[1]; s.c., PG-PVA, 0.014 mmol/kg",36%
same,% Inhibition,"[1]; s.c., PG-PVA, 0.056 mmol/kg",60%
same,ED50,"[2]; oral, 5% gum arabic in saline",0.003 mmol/kg
same,% Inhibition,"[2]; oral, 5% gum arabic, 0.001 mmol/kg",27%
same,% Inhibition,"[2]; oral, 5% gum arabic, 0.003 mmol/kg",43%
same,% Inhibition,"[2]; oral, 5% gum arabic, 0.006 mmol/kg",77%
same,ED50,"[2]; oral, PG-PVA in saline",0.02 mmol/kg
same,% Inhibition,"[2]; oral, PG-PVA, 0.007 mmol/kg",23%
same,% Inhibition,"[2]; oral, PG-PVA, 0.014 mmol/kg",43%
same,% Inhibition,"[2]; oral, PG-PVA, 0.028 mmol/kg",70%
"O=C(O)c1cccnc1Nc1cccc(C(F)(F)F)c1 [Niflumic acid, 2[3(trifluoro-methyl)phenyl] aminonicotinic acid, reference compound]",ED50,"[1]; oral, 5% gum arabic in saline",0.15 mmol/kg
same,% Inhibition,[1]; [3],52%
same,% Inhibition,[1]; [4],75%
same,ED50,"[1]; oral, PG-PVA in saline",0.21 mmol/kg
same,% Inhibition,"[1]; oral, PG-PVA, 0.13 mmol/kg",38%
same,% Inhibition,"[1]; oral, PG-PVA, 0.27 mmol/kg",51%
same,% Inhibition,"[1]; oral, PG-PVA, 0.53 mmol/kg",80%
same,ED50,"[1]; s.c., PG-PVA in saline",0.10 mmol/kg
same,% Inhibition,"[1]; s.c., PG-PVA, 0.04 mmol/kg",21%
same,% Inhibition,"[1]; s.c., PG-PVA, 0.09 mmol/kg",54%
same,% Inhibition,"[1]; s.c., PG-PVA, 0.18 mmol/kg",64%
same,ED50,"[2]; oral, 5% gum arabic in saline",0.42 mmol/kg
same,% Inhibition,[2]; [3],13%
same,% Inhibition,[2]; [4],87%
same,ED50,"[2]; oral, PG-PVA in saline",0.48 mmol/kg
same,% Inhibition,"[2]; oral, PG-PVA, 0.18 mmol/kg",23%
same,% Inhibition,"[2]; oral, PG-PVA, 0.71 mmol/kg",60%
"O=C(O)c1ccccc1O [Salicylic acid, reference compound]",ED50,"[1]; oral, 5% gum arabic in saline",2.13 mmol/kg
same,% Inhibition,"[1]; oral, 5% gum arabic, 0.91 mmol/kg",29%
same,% Inhibition,"[1]; oral, 5% gum arabic, 1.81 mmol/kg",33%
same,% Inhibition,"[1]; oral, 5% gum arabic, 3.62 mmol/kg",73%
same,ED50,"[1]; oral, PG-PVA in saline",> 2.17 mmol/kg
same,% Inhibition,"[1]; oral, PG-PVA, 2.17 mmol/kg",38%
same,ED50,"[1]; s.c., PG-PVA in saline",1.02 mmol/kg
same,% Inhibition,"[1]; s.c., PG-PVA, 0.54 mmol/kg",25%
same,% Inhibition,"[1]; s.c., PG-PVA, 1.09 mmol/kg",52%
same,% Inhibition,"[1]; s.c., PG-PVA, 2.17 mmol/kg",80%
same,ED50,"[2]; oral, 5% gum arabic in saline",2.33 mmol/kg
same,% Inhibition,"[2]; oral, 5% gum arabic, 1.09 mmol/kg",27%
same,% Inhibition,"[2]; oral, 5% gum arabic, 2.17 mmol/kg",57%
same,% Inhibition,"[2]; oral, 5% gum arabic, 4.34 mmol/kg",37%
same,time course of analgesia,"[2]; oral, 5% gum arabic, FIG. 1, 5 hours post-treatment",began to decline in the 3 to 4 hr interval following treatment
same,ED50,"[2]; oral, PG-PVA in saline",1.83 mmol/kg
same,% Inhibition,"[2]; oral, PG-PVA, 0.72 mmol/kg",33%
same,% Inhibition,"[2]; oral, PG-PVA, 1.44 mmol/kg",43%
same,% Inhibition,"[2]; oral, PG-PVA, 2.88 mmol/kg",60%
